In ChEMBL document CHEMBL3407440, “Monocarbonyl analogs of curcumin inhibit growth of antibiotic sensitive and resistant strains of Mycobacterium tuberculosis” (Eur J Med Chem, 2015):
pIC50: −log10 of the molar value.

Tested on: Mycobacterium tuberculosis
Assay: Antituberculosis activity against rifampicin-resistant Mycobacterium tuberculosis H37Rv assessed as growth inhibition after 72 hrs by liquid culture assay
Type: functional, organism-based

Compound | pIC50
CN1C/C(=C\c2ccccn2)C(=O)/C(=C/c2ccccn2)C1 | 5.15
O=C1/C(=C/c2ccccc2F)CNC/C1=C\c1ccccc1F | 4.70
